One data set deals with SMN2 mRNA. As to the kind of experiment: In vitro cell-free splicing assay for inclusion of exon 7. It is filed as biochemical. The settings on record: HeLa cell nuclear extract, 30° C., 3 hours. In short, it runs like this:
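^32P-labelled SMN2 minigene pre-mRNA (exon 6 to part of exon 8; 10 fmol) spliced 3 h at 30 °C in 30% HeLa nuclear extract with 0.5 mM ATP, 1.56 mM MgCl2, pH 7.4, plus compound or buffer. Exon 7 inclusion quantified by denaturing PAGE and phosphorimaging. Emax is maximal % inclusion and Cmax the lowest concentration (μM) reaching it, reported as binned grades.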

Data set [1] can be described thus: Brain-penetrating ability, brain:plasma ratio. In kind it is in vivo, Male CD1 mice. The settings on record: iv; for Ratio of Brain to Plasma Levels (at T = 3 hours, %): mouse, in vivo, 5 mg/kg. As for the experimental part: Male CD1 mice were administered various tetracycline compounds (i.v. at a dose of 5 mg/kg). After 15 minutes, 1 hour and 3 hours post-dose, 3 mice were sacrificed, exsanguinated, and brains harvested and snap frozen. Blood was centrifuged and the plasma removed and frozen.

The subject of a further data set is S. aureus (SA RN450). Put plainly: Antibacterial MIC, gram positive. In kind it is cell-based. As to conditions: CLSI methodology, 35° C., 18-24 hours.
The next data set deals with E. coli (EC D1-209). Put plainly: Antibacterial MIC, gram negative. It is filed as cell-based. The settings on record: CLSI methodology, 35° C., 18-24 hours.
Data set [2] concerns 3813 SMA patient-derived fibroblast cells. Put plainly: In vitro gems assay. In kind it is cell-based, Human. The settings on record: 1 mM, SMA patient line. As to the method: The following example illustrates how tetracycline compound of the invention increase gems in vitro. A glass cover slide was added into each well of 6 well plates and 1×10^4 cells (3813 SMA patient-derived fibroblast cells or 3814 unaffected family member-derived fibroblast cells) in 2 mL were added. After approximately 6 hours, the medium was changed and the desired compound was added to the appropriate well at indicated concentrations. After 12 hours, the medium was changed and the desired compound was added to the appropriate well again. After 24 hours, one set of slides was fixed and the medium was changed and the desired compound was added to the appropriate well again. After 36 hours, the medium was changed and the desired compound was added to the appropriate well again. Another set of cells were fixed on the slides at 48 hours.
Immunofluorescence staining of the cells was performed by washing the cells 2 times with PBS (phosphate buffered saline) and fixing the cells on slides in 4% paraformaldehyde for 10 minutes on ice. The cells were washed 3 times for 5 minutes with PBS, then were permeabilized on the cover slip with 0.2% TritonX, 0.5% BSA in PBS and incubated for 5 minutes on ice. […] The cells were again washed 2 times for five minutes with PBS, mounted on slides with Molecular Probes Prolong Antifade kit, dried and analyzed with Axioskop widefield fluourescence microscope.

On to `CN(C)C1C(O)=C(C(N)=O)C(=O)C2(O)C(O)=C3C(=O)c4c(O)ccc(-c5cccc(CCCN6CCCCC6)c5)c4CC3CC12` (stereo not shown) [BN], for which, in the data set on SMN2 mRNA, the “Cmax (lowest compound concentration at which the maximum exon 7 inclusion occurs)” value (“Cmax” below) is given as “*** (concentrations of less than 10 μM)” and the “Emax (maximum percentage exon 7 inclusion observed)” value is given as “*** (values greater than 20%)”. Also, the “Ratio of Brain to Plasma Levels (at T = 3 hours, %)” value in data set [1] was 41.6%. In addition, in the data set on S. aureus (SA RN450), the “MIC Gram Positive (SA RN450)” value is reported as “*** (Good antibacterial activity (e.g., less than about 4 μg/mL))”. For the same compound, the “MIC Gram Negative (EC D1-209)” value in the data set on E. coli (EC D1-209) is “** (modest antibacterial activity (between about 4 and 8 μg/mL))”.

For `COCCN(C)CC(=O)c1ccc(O)c2c1CC1CC3C(N(C)C)C(O)=C(C(N)=O)C(=O)C3(O)C(O)=C1C2=O` (stereo not shown) [BO], the “Ratio of Brain to Plasma Levels (at T = 3 hours, %)” value in data set [1] is 50.7%. Besides, the “MIC Gram Positive (SA RN450)” value in the data set on S. aureus (SA RN450) was “*** (Good antibacterial activity (e.g., less than about 4 μg/mL))”. Moreover, in the data set with E. coli (EC D1-209), the “MIC Gram Negative (EC D1-209)” value is listed as “* (weak antibacterial activity (greater than about 8 μg/mL))”.

For the compound `CN(C)c1ccc(O)c2c1C[C@H]1C[C@H]3[C@H](N(C)C)C(O)=C(C(N)=O)C(=O)[C@@]3(O)C(O)=C1C2=O` [Minocycline, minocycline, reference compound], the Kp at 3 h in data set [1] (male, CD1, mouse, brain and plasma, i.v. 5 mg/kg, 3 hours post-dose, read-out: Ratio of Brain to Plasma Levels (at T = 3 hours, %)) came out at 1.28.

Regarding `CCCC(CCC)C(=O)O` [valproic acid], in data set [2], the “increase in the number of gems/100 cells” value is recorded as 1.7 fold.

Regarding `CN(C)C1C(O)=C(C(N)=O)C(=O)C2(O)C(O)=C3C(=O)c4c(O)ccc(-c5cccc(C(=O)NCCN)c5)c4CC3CC12` (stereo not shown) [N], in the data set with SMN2 mRNA, the “Cmax” value was “** (concentrations between 40 and 10 μM)”; the “Emax (maximum percentage exon 7 inclusion observed)” value is recorded as “** (values of 10-20%)”. In the data set with S. aureus (SA RN450), the “MIC Gram Positive (SA RN450)” value is “*** (Good antibacterial activity (e.g., less than about 4 μg/mL))”. In addition, in the data set with E. coli (EC D1-209), the “MIC Gram Negative (EC D1-209)” value is recorded as “* (weak antibacterial activity (greater than about 8 μg/mL))”.

The term MIC denotes the lowest concentration that inhibits growth of the organism. A low value points to a more susceptible organism. For `CN(C)CC(=O)Nc1cccc(-c2ccc(O)c3c2C[C@H]2C[C@H]4[C@H](N(C)C)C(O)=C(C(N)=O)C(=O)[C@@]4(O)C(O)=C2C3=O)c1` [Compound K, (4S,4aS,5aR,12aS)-4-Dimethylamino-7-[3-(2-dimethylamino-acetylamino)-phenyl]-3,10,12,12a-tetrahydroxy-1,11-dioxo-1,4,4a,5,5a,6,11,12a-octahydro-naphthacene-2-carboxylic Acid Amide], in the data set on SMN2 mRNA, the “Cmax” value is given as “* (concentrations of greater than 40 μM)” and the “Emax (maximum percentage exon 7 inclusion observed)” value is “* (percentage inclusion values of less than 10%)”. Moreover, the minimal inhibitory concentration (MIC) with S. aureus (SA RN450) (Staphylococcus aureus) was less than 4 µg/mL. Further, the MIC in the data set on E. coli (EC D1-209) (Escherichia coli) is greater than 8 µg/mL.

In the case of `CN(C)CCNC(=O)c1cccc(-c2ccc(O)c3c2CC2CC4C(N(C)C)C(O)=C(C(N)=O)C(=O)C4(O)C(O)=C2C3=O)c1` (stereo not shown) [Compound A], in the data set with SMN2 mRNA, the “Cmax” value was “** (concentrations between 40 and 10 μM)”; the “Emax (maximum percentage exon 7 inclusion observed)” value is recorded as “** (values of 10-20%)”. Besides, the “MIC Gram Positive (SA RN450)” value against S. aureus (SA RN450) is reported as “*** (Good antibacterial activity (e.g., less than about 4 μg/mL))”. In addition, the “MIC Gram Negative (EC D1-209)” value against E. coli (EC D1-209) is given as “* (weak antibacterial activity (greater than about 8 μg/mL))”.

Source of the values: patent US7935687B2, “Methods for treating spinal muscular atrophy using tetracycline compounds” (Paratek Pharmaceuticals, Inc., priority 2007, dated 2011).
